PubChem BioAssay (NCI)
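In this assay, cells in 96-well plates receive the compound at five concentrations for 48 hours. Endpoints are linearly interpolated between the surrounding concentrations. Abbreviation: GI50, concentration required for 50% inhibition of growth. TGI: total growth inhibition.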

How the values were obtained:
Assay in all cases: inhibition of tumour cell growth, NCI panel, 48 h
OVCAR-4 ovarian = test system: OVCAR-4 ovarian
HT29 colon = test system: HT29 colon
BT-549 breast = test system: BT-549 breast
HOP-62 NSCLC = test system: HOP-62 NSCLC
UO-31 renal = test system: UO-31 renal
K-562 leukemia = test system: K-562 leukemia
RPMI-8226 leukemia = test system: RPMI-8226 leukemia
U251 CNS = test system: U251 CNS
MALME-3M melanoma = test system: MALME-3M melanoma
KM12 colon = test system: KM12 colon
MCF7 breast = test system: MCF7 breast
A549 NSCLC = test system: A549 NSCLC
SN12C renal = test system: SN12C renal
HOP-92 NSCLC = test system: HOP-92 NSCLC
SNB-19 CNS = test system: SNB-19 CNS
RXF 393 renal = test system: RXF 393 renal
HCC-2998 colon = test system: HCC-2998 colon
EKVX NSCLC = test system: EKVX NSCLC
SW-620 colon = test system: SW-620 colon
ACHN renal = test system: ACHN renal
NCI/ADR-RES ovarian = test system: NCI/ADR-RES ovarian
SF-295 CNS = test system: SF-295 CNS
NCI-H460 lung = test system: NCI-H460 lung
SK-MEL-2 melanoma = test system: SK-MEL-2 melanoma
MDA-MB-435 = test system: MDA-MB-435
UACC-257 melanoma = test system: UACC-257 melanoma
NCI-H522 lung = test system: NCI-H522 lung
MOLT-4 leukemia = test system: MOLT-4 leukemia
OVCAR-8 ovarian = test system: OVCAR-8 ovarian
MDA-MB-231 breast = test system: MDA-MB-231 breast
SK-MEL-28 melanoma = test system: SK-MEL-28 melanoma
PC-3 prostate = test system: PC-3 prostate
T-47D breast = test system: T-47D breast
NCI-H226 lung = test system: NCI-H226 lung
LOX IMVI melanoma = test system: LOX IMVI melanoma
HCT-116 colon = test system: HCT-116 colon
HCT-15 colon = test system: HCT-15 colon
COLO 205 colon = test system: COLO 205 colon
SF-539 CNS = test system: SF-539 CNS
HL-60(TB) leukemia = test system: HL-60(TB) leukemia
TK-10 renal = test system: TK-10 renal
UACC-62 melanoma = test system: UACC-62 melanoma
SF-268 CNS = test system: SF-268 CNS
786-0 renal = test system: 786-0 renal
SK-OV-3 ovarian = test system: SK-OV-3 ovarian
SK-MEL-5 melanoma = test system: SK-MEL-5 melanoma
SNB-75 CNS = test system: SNB-75 CNS
CAKI-1 renal = test system: CAKI-1 renal
OVCAR-3 ovarian = test system: OVCAR-3 ovarian
IGROV1 ovarian = test system: IGROV1 ovarian
NCI-H23 lung = test system: NCI-H23 lung
CCRF-CEM leukemia = test system: CCRF-CEM leukemia
HS 578T breast = test system: HS 578T breast
DU-145 prostate = test system: DU-145 prostate
SR leukemia = test system: SR leukemia
M14 melanoma = test system: M14 melanoma
OVCAR-5 ovarian = test system: OVCAR-5 ovarian
A498 renal = test system: A498 renal

`CC1(C)CC[C@H](Nc2ncc(C(F)(F)F)c(-c3c[nH]c4c(P(C)(C)=O)c(C#N)ccc34)n2)CN1` showed a GI50 (OVCAR-4 ovarian) of 365 nM, a TGI (OVCAR-4 ovarian) of 6890 nM and a GI50 (HT29 colon) of under 25.9 nM. The TGI (HT29 colon) was over 27700 nM, the GI50 (BT-549 breast) was 75.8 nM and the TGI (BT-549 breast) was 3670 nM. The GI50 (HOP-62 NSCLC) was 13.2 nM, the TGI (HOP-62 NSCLC) was 6690 nM and the GI50 (UO-31 renal) was 377 nM. It also gave a TGI (UO-31 renal) of 5110 nM, a GI50 (K-562 leukemia) of 21.9 nM and a TGI (K-562 leukemia) of over 45900 nM. It also gave a GI50 (RPMI-8226 leukemia) of under 10 nM, a TGI (RPMI-8226 leukemia) of 3430 nM and a GI50 (U251 CNS) of 77.1 nM. For the same compound, the TGI (U251 CNS) was 23700 nM, the GI50 (MALME-3M melanoma) was under 12.8 nM and the TGI (MALME-3M melanoma) was 13000 nM. For the same compound, the GI50 (KM12 colon) was 190 nM, the TGI (KM12 colon) was 13200 nM and the GI50 (MCF7 breast) was under 13.7 nM. For the same compound, the TGI (MCF7 breast) was 10200 nM, the GI50 (A549 NSCLC) was 184 nM and the TGI (A549 NSCLC) was 35400 nM. The GI50 (SN12C renal) was 141 nM, the TGI (SN12C renal) was 32200 nM and the GI50 (HOP-92 NSCLC) was 345 nM. The TGI (HOP-92 NSCLC) was 28800 nM, the GI50 (SNB-19 CNS) was 43.9 nM and the TGI (SNB-19 CNS) was over 54300 nM. It also gave a GI50 (RXF 393 renal) of 777 nM, a TGI (RXF 393 renal) of 4000 nM and a GI50 (HCC-2998 colon) of 37.5 nM. For the same compound, the TGI (HCC-2998 colon) was 11600 nM, the GI50 (EKVX NSCLC) was under 11.3 nM and the TGI (EKVX NSCLC) was 9270 nM. For the same compound, the GI50 (SW-620 colon) was 22.5 nM, the TGI (SW-620 colon) was 13200 nM and the GI50 (ACHN renal) was 72.1 nM. For the same compound, the TGI (ACHN renal) was 9270 nM, the GI50 (NCI/ADR-RES ovarian) was 3180 nM and the TGI (NCI/ADR-RES ovarian) was 27600 nM. The GI50 (SF-295 CNS) was 26.7 nM, the TGI (SF-295 CNS) was 13500 nM and the GI50 (NCI-H460 lung) was under 10 nM. It also gave a TGI (NCI-H460 lung) of 11500 nM, a GI50 (SK-MEL-2 melanoma) of 283 nM and a TGI (SK-MEL-2 melanoma) of 6900 nM. For the same compound, the GI50 (MDA-MB-435) was 38 nM, the TGI (MDA-MB-435) was 12000 nM and the GI50 (UACC-257 melanoma) was under 10 nM. It also gave a TGI (UACC-257 melanoma) of 6830 nM, a TGI (NCI-H522 lung) of 14400 nM and a GI50 (MOLT-4 leukemia) of 214 nM. The TGI (MOLT-4 leukemia) was over 23200 nM, the GI50 (OVCAR-8 ovarian) was 469 nM and the TGI (OVCAR-8 ovarian) was over 50200 nM. It also gave a GI50 (MDA-MB-231 breast) of 400 nM, a TGI (MDA-MB-231 breast) of 9080 nM and a GI50 (SK-MEL-28 melanoma) of under 10 nM. The TGI (SK-MEL-28 melanoma) was 9200 nM, the GI50 (PC-3 prostate) was 39.6 nM and the TGI (PC-3 prostate) was 43300 nM. For the same compound, the GI50 (T-47D breast) was 25.5 nM, the TGI (T-47D breast) was 5840 nM and the GI50 (NCI-H226 lung) was 165 nM. The TGI (NCI-H226 lung) was 6780 nM, the GI50 (LOX IMVI melanoma) was 29.7 nM and the TGI (LOX IMVI melanoma) was 7440 nM. For the same compound, the GI50 (HCT-116 colon) was under 10 nM, the TGI (HCT-116 colon) was 12100 nM and the GI50 (HCT-15 colon) was 210 nM. For the same compound, the TGI (HCT-15 colon) was 15100 nM, the GI50 (COLO 205 colon) was under 10 nM and the TGI (COLO 205 colon) was 773 nM. For the same compound, the GI50 (SF-539 CNS) was 245 nM, the TGI (SF-539 CNS) was 4730 nM and the GI50 (HL-60(TB) leukemia) was under 10 nM. The TGI (HL-60(TB) leukemia) was 2370 nM, the GI50 (TK-10 renal) was 711 nM and the TGI (TK-10 renal) was over 53900 nM. For the same compound, the GI50 (UACC-62 melanoma) was under 10 nM, the TGI (UACC-62 melanoma) was 2190 nM and the GI50 (SF-268 CNS) was 1170 nM. The TGI (SF-268 CNS) was 12900 nM, the GI50 (786-0 renal) was 201 nM and the TGI (786-0 renal) was 19200 nM. It also gave a GI50 (SK-OV-3 ovarian) of 1070 nM, a TGI (SK-OV-3 ovarian) of 5460 nM and a GI50 (SK-MEL-5 melanoma) of 66.6 nM. The TGI (SK-MEL-5 melanoma) was 2270 nM, the GI50 (SNB-75 CNS) was 774 nM and the TGI (SNB-75 CNS) was 10600 nM. For the same compound, the GI50 (CAKI-1 renal) was 36.1 nM, the TGI (CAKI-1 renal) was over 37600 nM and the GI50 (OVCAR-3 ovarian) was under 21.4 nM. The TGI (OVCAR-3 ovarian) was 4290 nM, the GI50 (IGROV1 ovarian) was 23.1 nM and the TGI (IGROV1 ovarian) was 14500 nM. It also gave a GI50 (NCI-H23 lung) of under 10 nM, a TGI (NCI-H23 lung) of 3440 nM and a GI50 (CCRF-CEM leukemia) of 143 nM. The TGI (CCRF-CEM leukemia) was over 32000 nM, the GI50 (HS 578T breast) was 736 nM and the TGI (HS 578T breast) was 10600 nM. For the same compound, the GI50 (DU-145 prostate) was 520 nM, the TGI (DU-145 prostate) was over 36400 nM and the GI50 (SR leukemia) was under 10 nM. It also gave a GI50 (M14 melanoma) of 75.9 nM, a TGI (M14 melanoma) of 6690 nM and a GI50 (OVCAR-5 ovarian) of 144 nM. For the same compound, the TGI (OVCAR-5 ovarian) was over 37700 nM, the GI50 (A498 renal) was 1760 nM and the TGI (A498 renal) was 8850 nM.
